Reference: ChEMBL document CHEMBL1157539, “Thousands of chemical starting points for antimalarial lead identification” (Nature, 2010)

System: Plasmodium falciparum
Test: GSK_TCMDC: Inhibition of Plasmodium falciparum 3D7 in whole erythrocytes, using parasite LDH activity as an index of growth.
Assay type: functional, organism-based
Conditions: Plasmodium falciparum, 3D7

SMILES | XC50 [nM]
CCC(Cc1cnc2nc(N)nc(N)c2n1)c1ccc(C(=O)O)cc1 (configuration not stated) | 250
COCCN1CCC(N(Cc2ccc(-c3ccc(OC(F)(F)F)cc3)cc2)C(=O)Cn2c(CCc3cccc(F)c3F)cc(=O)c3ccccc32)CC1 | 1210
CC(=O)Nc1ccc(OCCCCN(Cc2ccccc2C(F)(F)F)c2ccc(C#N)c(C(F)(F)F)c2)c(Cl)c1 | 981
CC(C)[C@H](NC(=O)c1ccc(O)c(-c2ccc(Cl)c(Cl)c2)c1)C(=O)NCCN(C)C | 1050
CCN(CCN(C)C)Cc1ccc(-c2ccc(NS(=O)(=O)c3cccc(Cl)c3)cc2)cc1 | 523
COc1cccc(O)c1CN1CCC2(CCCN(Cc3ccc(F)cc3)C2)C1 (configuration not stated) | 865
CC(C)(C)c1ccc(CNC(=O)c2ccc(-c3nc4cc(C(C)(C)C)ccc4[nH]3)cc2)cc1 | 840
CCCCC(=O)Nc1ccc(Nc2nc(C)cc(N3CCCC3)n2)cc1 | 1060
Cc1c(CCC#N)c(NCc2ccccc2)n2c(nc3ccccc32)c1C#N | 876
Cc1cc(N2CCCC2)nc(NC(=N)Nc2cccc(C(F)(F)F)c2)n1 | 315
O=C1C[C@@H]([S+]([O-])Cc2nccs2)N1CCOCCCCCCc1ccc(Cl)cc1 (some centres not stated) | 1020
O=C(Nc1cccc(C(F)(F)F)c1)c1cccc(S(=O)(=O)NC2CCN(CC3CCCCC3)C2)c1 (configuration not stated) | 588
Cc1[nH]c(C)c(-c2ccc(-c3ccc(F)cc3)nc2)c(=O)c1Br | 248
Cc1cccc2nc(-c3ccc(-c4ccc(CNCc5ccc(S(C)(=O)=O)cc5)cc4)cc3)[nH]c12 | 752
Nc1nc(N)c2c(ccc3nn(Cc4cccnc4)cc32)n1 | 355
O=C(Nc1ccc(O)c(-c2nc3ccccc3[nH]2)c1)c1ccc([N+](=O)[O-])cc1 | 318
COc1ccccc1N1CCN(C(C(=O)NCc2ccc3c(c2)OCO3)c2ccc3c(c2)OCCCO3)CC1 (configuration not stated) | 1120
Cc1cc2nc(N=C3NC4(c5ccccn5)NC(=Nc5nc6cc(C)c(C)cc6[nH]5)NC4(c4ccccn4)N3)[nH]c2cc1C (configuration not stated) | 683
COc1cc(NC(=O)/C=C/c2ccccc2OC(F)(F)F)cc(OCCN2CCC(O)(c3ccccc3)CC2)c1 | 285
O=C(NCCCCN1CCC(O)(c2ccc(Cl)cc2)CC1)c1ccc(Br)cc1 | 1250
CC(C(=O)N1CCCC1)N1CCN(C(c2ccccc2)c2ccccc2)CC1 (configuration not stated) | 1100
COCCNCc1ccc(-c2cccc(CN(C(=O)NCCc3ccccc3)C3CCN(Cc4ccccc4)CC3)c2)cc1 | 918
Cc1n[nH]c2cc(Nc3ccnc(Nc4ccc(CN5CCOCC5)cc4)n3)ccc12 | 950
CNC(=O)C1Cc2c([nH]c3ccc(Cl)cc23)C2(CCN(CCc3ccccc3)CC2)N1 (configuration not stated) | 893
CCC(=O)c1ccc(-c2ccc(=O)n(CC(=O)N(CCN(CC)CC)Cc3ccc(-c4ccc(C(F)(F)F)cc4)cc3)n2)cc1 | 715

SMILES | XC50 [nM]
CCn1ncc(Cl)c1CN(C)S(=O)(=O)c1ccc2ccccc2c1 | 818
CC(C)c1ccc(NC(=O)c2ccc(C(=O)NC3CCN(CC4CCCCC4)C3)cc2)cc1 (configuration not stated) | 792
CS(=O)(=O)c1ccc(-c2cnc(N)c(-c3cccc(O)c3)c2)cc1 | 695
O=C(NC1CC1)c1cnc(N2CCCC(c3ccccc3)C2)c(Cl)c1 (configuration not stated) | 797
CCN(CCCN1CCCCC1)c1nc(C)cc(Nc2ccc(Cl)cc2)n1 | 837
CC(C)CNCc1cccc(-c2cccc(CN(CCN(C)C)C(=O)Nc3ccccc3)c2)c1 | 795
COc1ccc(Nc2nccc(NCCNC(=O)c3cc4ccccc4s3)n2)cc1 | 1020
Cc1[nH]c2ccccc2c1C1=CCN(CCN2CCCc3c(Br)cccc3C2=O)CC1 | 659
CN(C)CCCOc1cccc(NC(=O)Nc2ccc(Cl)c(Cl)c2)c1 | 956
CCOc1ccc(CCCON2C(=N)N=C(N)NC2(C)C)cc1 | 3.2
O=C(NCCCCN1CCN(c2cccc(Cl)c2Cl)CC1)c1ccc2c(c1)CCN(C1CCC1)CC2 | 747
Cc1nnsc1C(=O)Nc1cccc(-c2ccc(-c3nc4ccccc4[nH]3)cc2)c1 | 870
CNC(=O)/C=C/c1cc(NC(=O)Nc2ccnc3c(Br)cccc23)ccc1OC | 864
O=C(/C=C/c1ccc(Cl)c(Cl)c1)NC1CCC(N2CCC(c3c[nH]c4ccc(O)cc34)CC2)CC1 (configuration not stated) | 921
COc1ccc(COc2c(OC)cc(Cc3cnc(N)nc3N)cc2OC)cc1 | 912
N#Cc1ccc(CN2CCC(Oc3ccc(NC(=O)c4cccs4)cc3)C2)cc1 (configuration not stated) | 953
O=C(NCCCCCN1CCC(c2c[nH]c3ccccc23)CC1)Nc1ccc(Br)cc1 | 925
CCCCN1CCN(CC(O)CNC(=O)Nc2ccc(Cl)cc2)CC1 (configuration not stated) | 68.5
Fc1c(CNCC2CCN(CC3CCCCC3)CC2)cccc1C(F)(F)F | 900
COc1ccc(Br)cc1C1C2C(=O)N(c3ccc(Br)cc3)C(=O)C2C2(C(=O)O)CC(OCc3ccccc3)CN12 (configuration not stated) | 195
O=C(Nc1cccc(C(F)(F)F)c1)Nc1ccc(F)c([N+](=O)[O-])c1 | 696
Oc1ccc2c(c1NCC1CCCCC1)CCCC2 | 514
O=C(Nc1ccccc1)c1nn(CCCN2CCC(N3CCCC3)CC2)cc1-c1ccc(Cl)c(Cl)c1 | 240
CC(C)c1ncc(-c2ccncc2)c(C2CCC(CNC(=O)c3ccncc3)CC2)n1 (configuration not stated) | 1350
Cc1cnc(Nc2cccc(CCN3CCOCC3)c2)nc1NC(C)C | 738

SMILES | XC50 [nM]
O=C(Nc1ccc(Cl)cc1)N(CC1CC2CCC(C1)N2Cc1ccc(C(F)(F)F)cc1)c1ccc(N2CCOCC2)c(F)c1 (configuration not stated) | 1070
Clc1ccc(Cn2nc(Br)nc2Br)c(Cl)c1 | 439
CCN(CC)CCCC(C)Nc1c(-c2ccc(Br)cc2)cnc2ccccc12 (configuration not stated) | 703
CCCCCCn1c(Sc2ccc(C#N)c([N+](=O)[O-])c2)nnc1-c1ccccc1 | 772
O=C(Cc1cccc(Cl)c1)Nc1cccc(-c2c[nH]c3nc(Nc4cccc(OCc5ccccc5)c4)ncc23)c1 | 1040
CCC[C@@H]([C@@H](CC(C)C)C(=O)N[C@@H](CCCCNC(=O)OCc1ccccc1)C(=O)Nc1ncccn1)N(O)C=O | 59.1
CCc1ccc(NC(=O)c2ccc(CN3CCCN(CCC(C)C)CC3)cc2)cc1 | 632
COc1cc2nc(NC3CCN(Cc4ccccc4)CC3)nc(N)c2cc1OC | 166
CS(=O)(=O)Nc1cccc(-c2cnc3[nH]cc(-c4ccc(C(=O)O)cc4)c3c2)c1 | 857
O=C(NC1CCCCN(Cc2ccccc2O)C1)c1cccc(C(F)(F)F)c1 (configuration not stated) | 795
CN(CCCNC(=S)NC12CC3CC(CC(C3)C1)C2)CCCNc1ccnc2cc(Cl)ccc12 | 121
CC[C@H]1CN2CC[C@H]1C[C@@H]2[C@@H](O)c1cc(Cl)nc2ccc(OC)cc12 | 63.5
Cc1cc(NCCCCCCCCNc2cc(C)nc3ccccc23)c2ccccc2n1 | 985
COc1cccc(CNC[C@@H](O)[C@H](Cc2ccccc2)NC(=O)c2cc3c4c(c2)c(C(C)C)cn4CCS(=O)(=O)N3C)c1 | 154
COc1cccc(NC(=O)Nc2cc(C)nc3ccccc23)c1 | 723
O=C(Cn1c(SCc2cccc(F)c2F)cc(=O)c2ccccc21)N(CCn1ccnc1)Cc1ccc(-c2ccc(C(F)(F)F)cc2)cc1 | 770
CCc1nc(N)nc(N)c1-c1ccc(F)cc1 | 407
CC(=O)Nc1ccc(S(=O)(=O)N(Cc2cccc(Oc3ccccc3)c2)C2CCN(C/C=C(\C)CCC=C(C)C)CC2)cc1 | 192
O=C(NCC1CCN(Cc2ccc(F)cc2)C1)c1cc(-c2cccc(C(F)(F)F)c2)cs1 (configuration not stated) | 960
Nc1oc2c(CN3CCCCCC3)c(O)ccc2c(=O)c1-c1nc2ccccc2s1 | 516
COc1ccccc1CNc1ncc(-c2ccsc2)c(-c2nccs2)n1 | 333
Cc1ccc(CN2CCCN(Cc3cccc(NC(=O)c4cc5ccccc5s4)c3)CC2)cc1 | 1190
CN(C)CCN(C)Cc1ccc(-c2ccc(NC(=O)c3cccc(C#N)c3)cc2)cc1 | 1270
O=C(NCCCCN1CCC(C(c2ccccc2)c2ccccc2)CC1)c1ccc(NC(=O)c2ccc(Cl)cc2)cc1 | 769
CCN(CC)CCCN(CCCN(CC)CC)c1cc(C)nc(Nc2ccc(Br)cc2)n1 | 200

SMILES | XC50 [nM]
CC(C)CCCC(C)(C)NC[C@@H](O)[C@H](Cc1ccccc1)NC(=O)c1cc(NC(C)C)cc(N2CCCCS2(=O)=O)c1F | 219
CC(C)(C)c1ccc(-c2cc(C(=O)N[C@@H](CO)C(=O)O)on2)cc1.CC(C)(C)c1ccc(-c2nocc2C(=O)N[C@@H](CO)C(=O)O)cc1 | 966
COCCOc1cc(C)c(C2CCN(CCCCNC(=O)c3ccc(NC(=O)c4ccc(Cl)cc4)cc3)CC2)cc1C | 951
Clc1ncnc2scc(-c3ccc(Br)cc3)c12 | 886
COc1ccc(Nc2nc(N3CCCC3)c3ccccc3n2)cc1 | 750
O=C(CSc1nc2ccccc2c(=O)n1C1CC1)Nc1cc(C(F)(F)F)ccc1Cl | 108
CCCCCCOc1ccc(C(=O)N[C@H]2CCN(CCCCCNC(=O)/C=C/c3ccc(Cl)c(Cl)c3)C2)cc1 | 695
CC(C)NCc1ccc(-c2cccc(-c3nc4cc(C(F)(F)F)ccc4[nH]3)c2)cc1 | 262
COC(=O)c1cccc(CNCc2ccc(-c3ccc(-c4nc5cc(F)ccc5[nH]4)s3)cc2)c1 | 588
Fc1ccc2[nH]cc(CCN3CCC(CNCc4ccccc4)CC3)c2c1 | 33
Cc1ccc(O)cc1Nc1ccnc2ccc(C(C)(C)C)cc12 | 1250
Cc1onc(-c2ccccc2)c1-c1nc(NCCC(c2ccccc2)c2ccccc2)no1 | 835
CCc1cc(COc2ccc(CNCCC(C)C)cc2I)c(OCc2ccccc2)c(COc2ccc(CNCCC(C)C)cc2I)c1 | 1110
O=C(NCCCCN1CCN(c2cccc3c2CCCC3)CC1)c1ccc(NC(=O)c2ccc(Cl)cc2)cc1 | 447
Clc1ccc(-c2csc3ncnc(Cl)c23)cc1 | 460
OCCNc1nc(Nc2ccc(Cl)cc2)nc2ccccc12 | 708
O=[N+]([O-])c1cnc(Nc2ccccc2O)nc1Nc1ccccc1O | 897
COc1cccc2c1CCN(CCN1CCC(NC(=O)c3ccc(-c4cccc(Cl)c4Cl)cc3)CC1)C2 | 699
Cc1nc(SCC(=O)N2CCCC2=O)c2c(C)c(C)sc2n1 | 170
CS(=O)(=O)c1ccc2c(c1)CCN(CCC1CCC(NC(=O)c3cc4cccc(Br)c4[nH]3)CC1)CC2 (configuration not stated) | 1040
C[C@@H]([C@@H](CCCCc1ccccc1)C(=O)N[C@H](C(=O)Nc1cccnc1)C(C)(C)C)N(O)C=O | 929
COc1ccc(C(=O)CCC(=O)N(Cc2ccc(-c3ccc(CNCCc4ccccc4)cn3)cc2)C(C)CN(C)C)cc1F (configuration not stated) | 747
